Results published in patent publication EP1561465A2, “Methods of use of fluoroquinolone compounds against bacteria” (LG Life Sciences, Ltd., priority 1999, dated 2001).
Values after ≈ are worked out from the molar mass of the structure shown. Like-named read-outs stand apart in the source and are kept apart here.

Experiments:
Assay type in all cases: cell-based
Klebsiella pneumoniae = experiment: MIC by NCCLS broth microdilution, 1100 Japanese clinical isolates 1997-1998; details: Klebsiella pneumoniae (n=35)
Providencia rettgeri = experiment: as above; details: Providencia rettgeri (n=12)
Streptococcus pneumoniae = experiment: MIC by two-fold serial agar dilution, Sensitivity Disk agar-N (Kitasato isolates); details: for MIC90: read-out: MIC90; for MIC: read-out: MIC Range
Proteus vulgaris = experiment: MIC by NCCLS broth microdilution, 1100 Japanese clinical isolates 1997-1998; details: Proteus vulgaris (n=25)
Enterococcus gallinarum = experiment: as above; details: Enterococcus gallinarum, GALLINARUM, Enterococcus gallinarum (vanC1), read-out: MIC
E. coli = experiment: microbe, parasite or virus in culture; details: Escherichia coli
Enterobacter aerogenes = experiment: MIC by NCCLS broth microdilution, 1100 Japanese clinical isolates 1997-1998; details: Enterobacter aerogenes (n=35)
Morganella morganii = experiment: as above
Enterococcus faecalis = experiment: as above; details: for MIC50 / MIC90: Enterococcus faecalis; for MIC90: read-out: MIC90
Proteus mirabilis = experiment: as above; details: Proteus mirabilis (n=30)
Klebsiella oxytoca = experiment: as above; details: Klebsiella oxytoca (n=40)
Shigella spp. = experiment: as above; details: Shigella spp. (n=34)
Citrobacter freundii = experiment: as above; details: Citrobacter freundii (n=39)
Haemophilus influenzae = experiment: MIC by two-fold serial agar dilution, Sensitivity Disk agar-N (Kitasato isolates); details: Haemophilus influenzae (24)
[1] = Enterococcus faecalis ciprofloxacin resistant (n=15)
[2] = Enterococcus faecalis ciprofloxacin susceptible (n=24)

Question: C[C@@H]1CN(c2c(F)c(N)c3c(=O)c(C(=O)O)cn(C4CC4)c3c2F)C[C@H](C)N1 [Sparfloxacin, sparfloxacin] was tested. Which MIC50 (Klebsiella pneumoniae) did it give?
Answer: Its MIC50 is 0.032 µg/mL (≈ 0.0815 µM).

Question: What about the “MIC Range” value (Klebsiella pneumoniae) of the same compound?
Answer: The value was 0.016 to 2 µg/mL.

Question: And the MIC90 (Klebsiella pneumoniae; read-out: MIC90)?
Answer: The MIC90 was 0.063 µg/mL (≈ 0.161 µM).

Question: What about the MIC90 (Providencia rettgeri) of the same compound?
Answer: The MIC90 was 16 µg/mL (≈ 40.8 µM).

Question: And the “MIC Range” value (Providencia rettgeri)?
Answer: Its value is 0.125 to 16 µg/mL.

Question: And the MIC50 (Providencia rettgeri; read-out: MIC50)?
Answer: Its MIC50 is 0.25 µg/mL (≈ 0.637 µM).

Question: And the MIC50 (Streptococcus pneumoniae; Ciprofloxacin-susceptible (94))?
Answer: The MIC50 was 0.125 µg/mL (≈ 0.319 µM).

Question: And the “MIC Range” value (Streptococcus pneumoniae; Minocycline-resistant (37))?
Answer: The value was 0.125 to 8 µg/mL.

Question: What about the MIC50 (Streptococcus pneumoniae; Streptococcus pneumoniae) of the same compound?
Answer: The MIC50 was 0.125 µg/mL (≈ 0.319 µM).

Question: And the MIC90 (Streptococcus pneumoniae; Streptococcus pneumoniae, 18 h, Ciprofloxacin-resistant (21), ciprofloxacin MIC ≥8 µg/ml)?
Answer: Its MIC90 is 8 µg/mL (≈ 20.4 µM).

Question: And the MIC (Streptococcus pneumoniae; Streptococcus pneumoniae, 18 h, Ciprofloxacin-resistant (21))?
Answer: Its MIC is 0.25 to 8 µg/mL (≈ 0.637 to 20.4 µM).

Question: And the MIC (Streptococcus pneumoniae; Streptococcus pneumoniae, 18 h, Ciprofloxacin-susceptible (94))?
Answer: Its MIC is 0.063 to 0.5 µg/mL (≈ 0.161 to 1.27 µM).

Question: And the MIC (Streptococcus pneumoniae; Streptococcus pneumoniae, 18 h, Penicillin-resistant (19))?
Answer: Its MIC is 0.063 to 1 µg/mL (≈ 0.161 to 2.55 µM).

Question: And the MIC (Streptococcus pneumoniae; Streptococcus pneumoniae, 18 h)?
Answer: The MIC was 0.125 to 8 µg/mL (≈ 0.319 to 20.4 µM).

Question: What about the MIC50 (Streptococcus pneumoniae; Streptococcus pneumoniae, Ciprofloxacin-resistant (21), read-out: MIC50) of the same compound?
Answer: Its MIC50 is 4 µg/mL (≈ 10.2 µM).

Question: And the MIC90 (Streptococcus pneumoniae; Streptococcus pneumoniae, Ciprofloxacin-susceptible (94))?
Answer: The MIC90 was 0.25 µg/mL (≈ 0.637 µM).

Question: What about the MIC50 (Streptococcus pneumoniae; Streptococcus pneumoniae, Erythromycin-resistant (37), read-out: MIC50) of the same compound?
Answer: The MIC50 was 0.25 µg/mL (≈ 0.637 µM).

Question: And the MIC90 (Streptococcus pneumoniae; Streptococcus pneumoniae, Erythromycin-resistant (37))?
Answer: The MIC90 was 0.5 µg/mL (≈ 1.27 µM).

Question: What about the MIC50 (Streptococcus pneumoniae; Streptococcus pneumoniae, Minocycline-resistant (37), read-out: MIC50) of the same compound?
Answer: The MIC50 was 0.25 µg/mL (≈ 0.637 µM).

Question: What about the MIC90 (Streptococcus pneumoniae; Streptococcus pneumoniae, Minocycline-resistant (37)) of the same compound?
Answer: Its MIC90 is 0.5 µg/mL (≈ 1.27 µM).

Question: What about the MIC90 (Streptococcus pneumoniae; Streptococcus pneumoniae, Penicillin-resistant (19)) of the same compound?
Answer: Its MIC90 is 0.5 µg/mL (≈ 1.27 µM).

Question: What about the “MIC Range” value (Proteus vulgaris) of the same compound?
Answer: The value was 0.063 to 2 µg/mL.

Question: What about the MIC50 (Proteus vulgaris; read-out: MIC50) of the same compound?
Answer: Its MIC50 is 0.25 µg/mL (≈ 0.637 µM).

Question: And the MIC90 (Proteus vulgaris; read-out: MIC90)?
Answer: The MIC90 was 1 µg/mL (≈ 2.55 µM).

Question: And the MIC (Enterococcus gallinarum; strain TMS1)?
Answer: Its MIC is 0.25 µg/mL (≈ 0.637 µM).

Question: And the MIC (Enterococcus gallinarum; strain TMS2)?
Answer: The MIC was 0.5 µg/mL (≈ 1.27 µM).

Question: And the MIC (Enterococcus gallinarum; strain TMS3)?
Answer: Its MIC is 0.5 µg/mL (≈ 1.27 µM).

Question: What about the MIC (Enterococcus gallinarum; strain TMS4) of the same compound?
Answer: Its MIC is 0.25 µg/mL (≈ 0.637 µM).

Question: And the MIC50 (E. coli; E. coli (13 strains), quinolone-resistant, read-out: MIC50)?
Answer: The MIC50 was 0.125 µg/mL (≈ 0.319 µM).

Question: And the MIC90 (E. coli; E. coli (13 strains), quinolone-resistant, read-out: MIC90)?
Answer: Its MIC90 is 0.5 µg/mL (≈ 1.27 µM).

Question: What about the MIC (E. coli; E. coli KU1029, mutant type SP (spontaneous mutant in the DNA gyrase)) of the same compound?
Answer: The MIC was 0.031 µg/mL (≈ 0.079 µM).

Question: And the MIC (E. coli; E. coli KU1030, mutant type SP)?
Answer: Its MIC is 0.063 µg/mL (≈ 0.161 µM).

Question: What about the MIC (E. coli; E. coli KU1031, mutant type SP) of the same compound?
Answer: Its MIC is 0.031 µg/mL (≈ 0.079 µM).

Question: What about the MIC (E. coli; E. coli KU1032, mutant type SP) of the same compound?
Answer: The MIC was 0.125 µg/mL (≈ 0.319 µM).

Question: What about the MIC (E. coli; E. coli KU1033, mutant type SP) of the same compound?
Answer: The MIC was 0.031 µg/mL (≈ 0.079 µM).

Question: What about the MIC (E. coli; E. coli KU1034, mutant type GA (DNA gyrase A)) of the same compound?
Answer: Its MIC is 0.5 µg/mL (≈ 1.27 µM).

Question: What about the MIC (E. coli; E. coli KU1035, mutant type GA (DNA gyrase A)) of the same compound?
Answer: Its MIC is 0.5 µg/mL (≈ 1.27 µM).

Question: What about the MIC (E. coli; E. coli KU1036, mutant type GB (DNA gyrase B)) of the same compound?
Answer: The MIC was 0.063 µg/mL (≈ 0.161 µM).

Question: And the MIC (E. coli; E. coli KU1038, mutant type SP)?
Answer: Its MIC is 0.031 µg/mL (≈ 0.079 µM).

Question: What about the MIC (E. coli; E. coli KU1039, mutant type SP) of the same compound?
Answer: The MIC was 0.25 µg/mL (≈ 0.637 µM).

Question: And the MIC (E. coli; E. coli KU1040, mutant type SP)?
Answer: The MIC was at most 0.008 µg/mL.

Question: What about the MIC (E. coli; E. coli KU1041, mutant type SP) of the same compound?
Answer: Its MIC is 0.25 µg/mL (≈ 0.637 µM).

Question: And the MIC (E. coli; E. coli KU1042, mutant type SP)?
Answer: Its MIC is 0.063 µg/mL (≈ 0.161 µM).

Question: What about the “MIC Range” value (Enterobacter aerogenes) of the same compound?
Answer: Its value is 0.016 to 0.25 µg/mL.

Question: And the MIC50 (Enterobacter aerogenes; Klebsiella aerogenes)?
Answer: The MIC50 was 0.032 µg/mL (≈ 0.0815 µM).

Question: What about the MIC90 (Enterobacter aerogenes; Klebsiella aerogenes) of the same compound?
Answer: The MIC90 was 0.063 µg/mL (≈ 0.161 µM).

Question: What about the MIC50 (Morganella morganii; Morganella morganii) of the same compound?
Answer: The MIC50 was 0.125 µg/mL (≈ 0.319 µM).

Question: What about the “MIC Range” value (Morganella morganii; Morganella morganii (n=40)) of the same compound?
Answer: Its value is 0.063 to 16 µg/mL.

Question: And the MIC90 (Morganella morganii; Morganella morganii (n=40), read-out: MIC90)?
Answer: Its MIC90 is 0.5 µg/mL (≈ 1.27 µM).

Question: And the “MIC Range” value (Enterococcus faecalis; [1])?
Answer: Its value is 0.5 to 64 µg/mL.

Question: And the “MIC Range” value (Enterococcus faecalis; [2])?
Answer: Its value is 0.5 to 1 µg/mL.

Question: And the MIC50 (Enterococcus faecalis; [1])?
Answer: Its MIC50 is 16 µg/mL (≈ 40.8 µM).

Question: And the MIC90 (Enterococcus faecalis; [1])?
Answer: The MIC90 was 64 µg/mL (≈ 163 µM).

Question: And the MIC50 (Enterococcus faecalis; [2])?
Answer: The MIC50 was 0.5 µg/mL (≈ 1.27 µM).

Question: And the MIC90 (Enterococcus faecalis; [2])?
Answer: Its MIC90 is 1 µg/mL (≈ 2.55 µM).

Question: And the “MIC Range” value (Proteus mirabilis)?
Answer: The value was 0.063 to 16 µg/mL.

Question: And the MIC50 (Proteus mirabilis; read-out: MIC50)?
Answer: The MIC50 was 0.25 µg/mL (≈ 0.637 µM).

Question: And the MIC90 (Proteus mirabilis; read-out: MIC90)?
Answer: The MIC90 was 0.5 µg/mL (≈ 1.27 µM).

Question: What about the MIC50 (Klebsiella oxytoca) of the same compound?
Answer: Its MIC50 is 0.063 µg/mL (≈ 0.161 µM).

Question: What about the MIC90 (Klebsiella oxytoca) of the same compound?
Answer: The MIC90 was 8 µg/mL (≈ 20.4 µM).

Question: And the “MIC Range” value (Klebsiella oxytoca)?
Answer: Its value is 0.016 to 32 µg/mL.

Question: And the MIC50 (Shigella spp.)?
Answer: Its MIC50 is at most 0.008 µg/mL.

Question: And the MIC90 (Shigella spp.)?
Answer: The MIC90 was 0.032 µg/mL (≈ 0.0815 µM).

Question: And the “MIC Range” value (Shigella spp.)?
Answer: Its value is at most 0.008 to 0.032 µg/mL.

Question: And the MIC90 (Citrobacter freundii)?
Answer: The MIC90 was 2 µg/mL (≈ 5.1 µM).

Question: And the “MIC Range” value (Citrobacter freundii)?
Answer: Its value is 0.016 to 4 µg/mL.

Question: And the MIC50 (Citrobacter freundii; read-out: MIC50)?
Answer: Its MIC50 is 0.25 µg/mL (≈ 0.637 µM).

Question: What about the MIC50 (Haemophilus influenzae) of the same compound?
Answer: The MIC50 was 0.016 µg/mL (≈ 0.0408 µM).

Question: And the MIC90 (Haemophilus influenzae)?
Answer: Its MIC90 is 0.031 µg/mL (≈ 0.079 µM).

Question: And the “MIC Range” value (Haemophilus influenzae)?
Answer: The value was at most 0.004 to 0.063 µg/mL.
